Patent US20080194528A1, “Pharmaceutical compositions comprising organopolysiloxane elastomers and solubilized bioactive compounds” (GALDERMA RESEARCH AND DEVELOPMENT, priority 2005, published 2008)

Assay: Active ingredient solubility tests in various solvents
Type: physicochemical
Protocol: The solubility of {4-[6-ethyl-4′-(1-ethyl-1-hydroxypropyl)-2′-propylbiphenyl-3-yloxymethyl]-2-hydroxymethylphenyl}methanol was tested in various solvents.

Max sol (% w/w) (in Arlamol E): 1.033 % w/w
Max sol (% w/w) (in Cremophor RH40): 3.989 % w/w
Max sol (% w/w) (in Ethanol 95): >20 % w/w
Max sol (% w/w) (in Eutanol G): 0.322 % w/w
Max sol (% w/w) (in IPP): 0.1654 % w/w
Max sol (% w/w) (in Labrafil M1944CS): 0.936 % w/w
Max sol (% w/w) (in Miglyol 812): 0.3167 % w/w
Max sol (% w/w) (in PEG 400): 6.894 % w/w
Max sol (% w/w) (in Primol 352): 0.0009 % w/w
Max sol (% w/w) (in Propylene Glycol): 2.3351 % w/w
Max sol (% w/w) (in Sweet almond oil): 0.0932 % w/w
Max sol (% w/w) (in Transcutol): >20 % w/w
Compound: CCCc1cc(C(O)(CC)CC)ccc1-c1cc(OCc2ccc(CO)c(CO)c2)ccc1CC [compound 3, {4-[6-ethyl-4′-(1-ethyl-1-hydroxypropyl)-2′-propylbiphenyl-3-yloxymethyl]-2-hydroxymethylphenyl}methanol]
